Measurements: patent US11912682B2, “Isoindolinone compounds” (Monte Rosa Therapeutics, Inc., priority 2021, dated 2024)
Read-outs that look alike come from different tables or passages of the source.

Assays:
[1] = target: Full length wild-type cereblon CRBN (Homo sapiens (Human), UniProt Q96SW2); assay: fluorescence polarization (FP) assay, cereblon binding
Excerpt: Compound activity was monitored in a fluorescence polarization (FP) homogeneous assay using 1-[5-({2-[2-(2-{[2-(2,6-dioxopiperidin-3-yl)-1,3-dioxo-2,3-dihydro-1H-isoindol-4-yl]oxy}acetamido)ethoxy]ethyl}carbamoyl)pentyl]-3,3-dimethyl-2-[(1E,3E)-5-[(2E)-1,3,3-trimethyl-5-sulfo-2,3-dihydro-1H-indol-2-ylidene]penta-1,3-dien-1-yl]-3H-indol-1-ium-5-sulfonate as a fluorescent probe. Unless otherwise stated, all reagents were purchased from Sigma Aldrich. […] Full length wild-type cereblon CRBN (80.0 nM, 10 μL) was incubated in assay buffer containing 20 mM HEPES (pH 8.0), […], 0.5 mM TCEP and 0.05% Tween 20 in the presence or absence of compound (300 nL). Inhibitors were stored as 10 mM DMSO stocks in an inert environment (low humidity, dark, low oxygen, room temperature) using the Storage Pod System. […] Following incubation at room temperature for 30 min, the assay was initiated by dispensing the probe to a final concentration of 5 nM (2.5 nL of a 20 μM stock) using the Echo ESXX. […] The FP signal was subsequently normalized to the no-compound control (i.e., DMSO). Analysis and IC50 values were derived using Dotmatics (Dotmatics UK) software.

GSPT1 = GSPT1 (Homo sapiens (Human), UniProt P15170+Q96SW2); assay: immunofluorescence assay for GSPT1 degradation in CAL-51 cells (Example 4); format: cell-based
Chain of GSPT1 (P15170 whole entry): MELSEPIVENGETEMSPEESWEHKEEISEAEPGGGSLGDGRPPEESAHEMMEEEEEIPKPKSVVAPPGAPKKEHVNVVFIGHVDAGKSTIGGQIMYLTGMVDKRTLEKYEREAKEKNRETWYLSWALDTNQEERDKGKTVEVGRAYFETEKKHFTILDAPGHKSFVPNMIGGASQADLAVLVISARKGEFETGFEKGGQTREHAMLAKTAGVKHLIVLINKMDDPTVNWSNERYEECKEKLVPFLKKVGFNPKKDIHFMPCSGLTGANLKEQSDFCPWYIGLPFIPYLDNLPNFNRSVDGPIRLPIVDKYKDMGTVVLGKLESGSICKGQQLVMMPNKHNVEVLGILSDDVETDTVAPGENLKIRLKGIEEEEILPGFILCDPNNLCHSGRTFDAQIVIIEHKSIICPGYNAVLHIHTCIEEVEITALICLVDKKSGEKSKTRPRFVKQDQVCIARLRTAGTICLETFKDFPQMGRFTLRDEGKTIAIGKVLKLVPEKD
Chain of GSPT1 (Q96SW2 whole entry): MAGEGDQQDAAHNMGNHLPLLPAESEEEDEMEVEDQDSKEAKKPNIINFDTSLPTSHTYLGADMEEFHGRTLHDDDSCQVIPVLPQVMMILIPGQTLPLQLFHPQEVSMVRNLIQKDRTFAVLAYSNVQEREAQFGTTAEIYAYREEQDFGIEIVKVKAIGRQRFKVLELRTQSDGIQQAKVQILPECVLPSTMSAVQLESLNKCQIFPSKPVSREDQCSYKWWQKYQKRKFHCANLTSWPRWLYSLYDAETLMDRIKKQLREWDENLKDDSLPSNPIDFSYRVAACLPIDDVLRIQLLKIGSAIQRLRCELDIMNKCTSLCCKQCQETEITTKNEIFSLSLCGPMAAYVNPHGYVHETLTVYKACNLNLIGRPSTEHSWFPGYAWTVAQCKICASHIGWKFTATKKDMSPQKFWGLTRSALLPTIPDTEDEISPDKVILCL
Chain of GSPT1 (Q16531 2-1140 partner): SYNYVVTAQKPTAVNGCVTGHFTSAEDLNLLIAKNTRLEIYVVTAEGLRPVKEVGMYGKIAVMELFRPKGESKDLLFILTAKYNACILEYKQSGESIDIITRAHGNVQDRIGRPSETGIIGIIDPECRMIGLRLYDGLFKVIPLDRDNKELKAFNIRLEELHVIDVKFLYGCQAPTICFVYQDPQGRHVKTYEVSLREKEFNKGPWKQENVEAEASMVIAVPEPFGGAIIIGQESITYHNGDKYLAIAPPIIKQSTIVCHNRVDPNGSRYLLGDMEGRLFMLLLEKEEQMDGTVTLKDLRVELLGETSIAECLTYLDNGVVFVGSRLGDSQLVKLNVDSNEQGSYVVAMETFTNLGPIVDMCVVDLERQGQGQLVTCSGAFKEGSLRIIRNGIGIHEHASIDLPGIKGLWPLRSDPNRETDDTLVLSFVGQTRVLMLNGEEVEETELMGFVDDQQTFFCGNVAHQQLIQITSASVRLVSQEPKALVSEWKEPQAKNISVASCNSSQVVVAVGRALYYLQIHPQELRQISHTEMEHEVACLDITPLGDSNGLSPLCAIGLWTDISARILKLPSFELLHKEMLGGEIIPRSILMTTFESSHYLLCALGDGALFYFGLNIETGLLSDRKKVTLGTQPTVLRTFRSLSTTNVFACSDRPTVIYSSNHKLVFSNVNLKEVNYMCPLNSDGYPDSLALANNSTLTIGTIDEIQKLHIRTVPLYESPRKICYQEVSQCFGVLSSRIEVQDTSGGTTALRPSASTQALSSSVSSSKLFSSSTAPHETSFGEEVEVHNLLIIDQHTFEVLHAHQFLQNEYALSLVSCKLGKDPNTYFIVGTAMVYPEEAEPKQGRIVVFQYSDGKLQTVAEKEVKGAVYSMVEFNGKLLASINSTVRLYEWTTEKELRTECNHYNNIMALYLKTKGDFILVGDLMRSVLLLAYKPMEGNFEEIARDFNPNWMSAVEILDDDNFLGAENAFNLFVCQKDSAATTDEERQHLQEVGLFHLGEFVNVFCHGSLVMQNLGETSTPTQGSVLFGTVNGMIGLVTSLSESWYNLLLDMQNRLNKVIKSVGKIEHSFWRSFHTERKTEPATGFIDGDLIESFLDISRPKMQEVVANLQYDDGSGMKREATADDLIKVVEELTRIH
Description: The representative compounds were tested in an immunofluorescence assay for their activity to bind to degrade GSPT1. CAL-51 cells were purchased from DSMZ (cat. Number ACC302), sub-cultured in 90% Dulbecco's MEM (4.5 g/L glucose, Gibco 11965) +10% heat inactivated FBS (BioConcept, 2-01F136I) and incubated at 37° C., 5% CO2. For the assay, imaging microtiterplate Cell Carrier 96 Ultra (Perkin Elmer 6055302) were pre-coated with Fibronectin (Sigma F085, 30 μl at 0.2 μg/ml) in PBS (100 μl, Gibco 14190) for 45 min at room temperature, rinsed with PBS and CAL-51 cells (30 K cells/well) were plated and let to adhere overnight. Cells were treated with compounds typically using a serial dilution ranging from 30 μM to 0.1 nM for 6 hours. Compounds were stored at 10 mM DMSO stocks. Vehicle (DMSO), positive (CC-885, 10 μM) and rescue controls (positive control plus 0.2 μM bortezomib) were also included atthis stage. Cells were subsequently rinsed with PBS and fixed in 10% Formalin solution (50 μl, Sigma HT5011)) for 20 mins at room temperature. Following three consecutive PBS washes (100 μl), cells were permeabilized in 0.1% Triton X-100 in PBS (Sigma 93443, 50 μl) for 15 mins at room temperature. Following three further PBS washes, 50 μl blocking buffer (1% BSA, Sigma A4503, in PBS) was added for 45 min for signal-to-noise reduction.
Primary antibody (human GSPT1, Sigma HPA052488) was diluted in blocking buffer (dil.1/300, 35 μl/well) and incubated with the cells overnight at 4° C. After three PBS washes, Alexa-fluor 488 coupled secondary antibodies (Invitrogen, A32731, dil.1/1000), Alexa-fluor 647-Phalloidin (Invitrogen, A22287, dil.1/200) and DAPI (Thermo, #62248, dil.1/1000) were diluted in blocking buffer and incubated with the samples for 2 hours at room temperature. After three final PBS washes, samples were conserved in 100 μl PBS in the dark, until measurement. Image acquisition was performed on the Operetta High-Content Imager (Perkin-Elmer). Fluorescence intensity of Alexa-Fluor 488 (GSPT1), Alexa-Fluor 647 (Actin) and DAPI (Nucleus) were measured. For the determination of GSPT1 DC50 values, a custom algorithm implemented in the PerkinElmer image analysis software Harmony-Acapella® was developed. After user-defined setting of adjustment parameters, the analysis was run identically without human intervention for all image fields. DAPI staining of the nuclei was used to determine the location of cells using standard nuclei detection modules. Segmentation artifacts were removed by threshold-based filters for area, roundness and intensity. The outline of the cells was determined analogously from the sum of the normalized, smoothed DAPI and Actin channel, starting from each nucleus. The Alexa-Fluor 488 (GSPT1) signal intensity in each cell was finally measured, in order to obtain a Mean intensity per cell. GSPT1 degradation (DC50) was calculated after normalization to controls and data import in CDD vault Database, using non-linear regression.

[2] = 6 hours, read-out: Activity for GSPT1 degradation, Code (DC50)
[3] = GSPT1 degradation, read-out: DC50 value

Chain of Full length wild-type cereblon CRBN (Q96SW2 whole entry): as the sequence (Q96SW2 whole entry) above

Row | SMILES | IC50 ([1]; read-out: rFP IC50) [nM] | DC50 (GSPT1; [2]) [nM] | IC50 ([1]; read-out: IC50 value) [nM] | DC50 (GSPT1; [3]) [nM]
1 | O=C1CCC(N2Cc3ccc(COC(=O)Nc4cnc5c(c4)COCC5)cc3C2=O)C(=O)N1 (centres unmarked) [Compound 54] | < 500 | > 300 |  | 
2 | CCc1cc(NC(=O)OCc2ccc3c(c2)C(=O)N(C2CCC(=O)NC2=O)C3)cnc1C (centres unmarked) [Compound 55] |  | < 30 | < 1100 | ≤ 30
3 | O=C1CCC(N2Cc3ccc(COC(=O)Nc4cc(F)cc(OC(F)(F)F)c4)cc3C2=O)C(=O)N1 (centres unmarked) [Compound 57] | > 1700 | < 30 |  | ≤ 30
4 | CC1(c2ccc(NC(=O)OCc3ccc4c(c3)C(=O)N(C3CCC(=O)NC3=O)C4)cc2)CC1 (centres unmarked) [Compound 58] |  | < 30 | < 1100 | ≤ 30
5 | O=C1CCC(N2Cc3ccc(COC(=O)Nc4cc(OC(F)(F)F)ccn4)cc3C2=O)C(=O)N1 (centres unmarked) [Compound 59] | < 500 | 30 to 300 |  | 
6 | O=C1CCC(N2Cc3ccc(COC(=O)Nc4ccc(N5CCCC5)nc4)cc3C2=O)C(=O)N1 (centres unmarked) [Compound 60] | < 500 | 30 to 300 |  | 
7 | O=C1CCC(N2Cc3ccc(COC(=O)Nc4ccc(F)c(OC(F)(F)F)c4)cc3C2=O)C(=O)N1 (centres unmarked) [Compound 61] | > 1700 | < 30 |  | ≤ 30
8 | CC1(c2ccc(NC(=O)OCc3ccc4c(c3)C(=O)N(C3CCC(=O)NC3=O)C4)cc2)COC1 (centres unmarked) [Compound 62] |  | 30 to 300 | < 1100 | 
9 | CCc1cc(NC(=O)OCc2ccc3c(c2)C(=O)N(C2CCC(=O)NC2=O)C3)ccn1 (centres unmarked) [Compound 63] | < 500 | > 300 |  | 
10 | O=C1CCC(N2Cc3ccc(COC(=O)Nc4cnc(N5CCCCC5)nc4)cc3C2=O)C(=O)N1 (centres unmarked) [Compound 64] |  | 30 to 300 | < 1100 | 
11 | O=C1CCC(N2Cc3ccc(COC(=O)Nc4ccc(N5CC6CCC(C5)O6)nc4)cc3C2=O)C(=O)N1 (centres unmarked) [Compound 65] | < 500 | > 300 |  | 
12 | O=C1CCC(N2Cc3ccc(COC(=O)Nc4ccc5c(c4)CCO5)cc3C2=O)C(=O)N1 (centres unmarked) [Compound 66] | < 500 | 30 to 300 |  | 
13 | O=C1CCC(N2Cc3ccc(COC(=O)Nc4ccc5c(c4)CCCO5)cc3C2=O)C(=O)N1 (centres unmarked) [Compound 67] |  | 30 to 300 | < 1100 | 
14 | Cc1c(Cl)cc(NC(=O)OCc2ccc3c(c2)C(=O)N(C2CCC(=O)NC2=O)C3)cc1OC1CCN(C)C1 (centres unmarked) [Compound 68] |  | < 30 | < 1100 | ≤ 30
15 | CC1CCN(c2ccc(NC(=O)OCc3ccc4c(c3)C(=O)N(C3CCC(=O)NC3=O)C4)cn2)C1 (centres unmarked) [Compound 69] | < 500 | < 30 |  | ≤ 30
16 | Cc1c(Cl)cc(NC(=O)OCc2ccc3c(c2)C(=O)N(C2CCC(=O)NC2=O)C3)cc1OCC1CCN(C)C1 (centres unmarked) [Compound 70] | < 500 | 30 to 300 |  | 
17 | O=C1CCC(N2Cc3ccc(COC(=O)Nc4cnc(N5CCCCC5)c(F)c4)cc3C2=O)C(=O)N1 (centres unmarked) [Compound 72] |  | 30 to 300 | < 1100 | 

Row | SMILES | IC50 ([1]; read-out: rFP IC50) [nM] | DC50 (GSPT1; [2]) [nM] | IC50 ([1]; read-out: IC50 value) [nM] | DC50 (GSPT1; [3]) [nM]
18 | O=C1CCC(N2Cc3ccc(COC(=O)Nc4ccc(N5CCCC(F)(F)C5)nc4)cc3C2=O)C(=O)N1 (centres unmarked) [Compound 73] | < 500 | 30 to 300 |  | 
19 | CC1CCCN1c1ccc(NC(=O)OCc2ccc3c(c2)C(=O)N(C2CCC(=O)NC2=O)C3)cn1 (centres unmarked) [Compound 74] | < 500 | < 30 |  | ≤ 30
20 | O=C1CCC(N2Cc3ccc(COC(=O)Nc4ccc(N5CCCCC5)nn4)cc3C2=O)C(=O)N1 (centres unmarked) [Compound 75] | < 500 | 30 to 300 |  | 
21 | O=C1CCC(N2Cc3ccc(COC(=O)Nc4ccc(N5CCOCC5)nc4)cc3C2=O)C(=O)N1 (centres unmarked) [Compound 76] |  | 30 to 300 | < 1100 | 
22 | CC1CCCCN1c1ccc(NC(=O)OCc2ccc3c(c2)C(=O)N(C2CCC(=O)NC2=O)C3)cn1 (centres unmarked) [Compound 77] |  | < 30 | < 1100 | ≤ 30
23 | O=C1CCC(N2Cc3ccc(COC(=O)Nc4ccc(N5CCC(F)(F)CC5)nc4)cc3C2=O)C(=O)N1 (centres unmarked) [Compound 78] | < 500 | 30 to 300 |  | 
24 | O=C1CCC(N2Cc3ccc(COC(=O)Nc4ccc(C5CC5)nc4)cc3C2=O)C(=O)N1 (centres unmarked) [Compound 80] | < 500 | 30 to 300 |  | 
25 | O=C1CCC(N2Cc3ccc(COC(=O)Nc4ccc(C5COC5)cc4)cc3C2=O)C(=O)N1 (centres unmarked) [Compound 81] | < 500 | 30 to 300 |  | 
26 | CN1CCN(c2ccc(NC(=O)OCc3ccc4c(c3)C(=O)N(C3CCC(=O)NC3=O)C4)cn2)CC1 (centres unmarked) [Compound 82] | < 500 | > 300 |  | 
27 | CC1(C)COc2cc(NC(=O)OCc3ccc4c(c3)C(=O)N(C3CCC(=O)NC3=O)C4)ccc21 (centres unmarked) [Compound 83] |  | < 30 | < 1100 | ≤ 30
28 | O=C1CCC(N2Cc3ccc(COC(=O)Nc4ccc(-c5ccccc5F)nc4)cc3C2=O)C(=O)N1 (centres unmarked) [Compound 84] | < 500 | < 30 |  | ≤ 30
29 | O=C1CCC(N2Cc3ccc(COC(=O)Nc4cnc(-c5ccccc5)c(F)c4)cc3C2=O)C(=O)N1 (centres unmarked) [Compound 85] | > 1700 | < 30 |  | ≤ 30
30 | Cc1ccccc1-c1ccc(NC(=O)OCc2ccc3c(c2)C(=O)N(C2CCC(=O)NC2=O)C3)cn1 (centres unmarked) [Compound 86] |  | < 30 | < 1100 | ≤ 30
31 | COc1ccccc1-c1ccc(NC(=O)OCc2ccc3c(c2)C(=O)N(C2CCC(=O)NC2=O)C3)cn1 (centres unmarked) [Compound 87] |  | < 30 | < 1100 | ≤ 30
32 | Cc1cc(NC(=O)OCc2ccc3c(c2)C(=O)N(C2CCC(=O)NC2=O)C3)cnc1-c1ccccc1 (centres unmarked) [Compound 88] |  | < 30 | < 1100 | ≤ 30
33 | CN(C)C1CN(c2ccc(NC(=O)OCc3ccc4c(c3)C(=O)N(C3CCC(=O)NC3=O)C4)cn2)C1 (centres unmarked) [Compound 89] |  | > 300 | < 1100 | 
34 | Cc1ncc(NC(=O)OCc2ccc3c(c2)C(=O)N(C2CCC(=O)NC2=O)C3)cc1OC(F)(F)F (centres unmarked) [Compound 91] |  | < 30 | < 1100 | ≤ 30
